Assays:
mini-pig dorsal wounds = experiment: Wound repair in the mini-pig, topical treatment; assay type: in vivo; design: key to d) Histological evaluation of biopsies after 4 weeks / e) Histological evaluation of biopsies after 6 weeks: collagen organisation 1-3; 3 = best healing, 1 = parallel bundles; details: for a) Evaluation of wound quality after 4 weeks: 2.5 mL twice a day, 5 excellent; for a) Evaluation of wound quality after 4 weeks / b) Evaluation of wound quality after 6 weeks: 5-point scale; for d) Histological evaluation of biopsies after 4 weeks / e) Histological evaluation of biopsies after 6 weeks: collagen organisation, 3-point scale; for c) Histopathological evaluation after 6 weeks: scale of 1 to 3, 3 optimum healing
Excerpt: The mini-pig (an animal weighing 25-28 Kg), a model whose validity for wound-repair studies is widely recognised, was used as experimental model to evaluate the ability of chondroitin to accelerate the repair process of damaged skin tissue. Operating under general anaesthetic from the back of the animals, the hair was shaved and the shaven area was washed thoroughly with a 10% solution of iodine-polyvinylpyrrolidone complex and then with isopropyl alcohol. 12 elliptical wounds, six on each side, 20 mm long and 6 mm wide, were made on the shaven, disinfected backs of the animals. The wounds penetrated as far as the subcutaneous fat, about 4 cm from the median line of the back, with the longer side of the wound parallel to the spinal line. The incisions were then sewn with two stitches to close the dermal plane. The superficial stitches were removed after about 7 days. The wounds were covered with a non-adhesive dressing secured with sticking plaster, and the body of the animals was protected with an elastic bandage. Eight animals were selected and divided into two groups of 4, treated topically with chondroitin (first group) or chondroitin sulphate (second group), as described in the protocol shown in Table 11. Starting from the head of the animal, the first two wounds on both sides were treated with the carrier alone, consisting of 2.5 mL of saline, the second two on both sides were treated with 2.5 mL of a 30 mg/mL solution of chondroitin in saline (first group) or with 2.5 mL of a 30 mg/mL solution of chondroitin sulphate in saline (second group), and the third two on both sides were treated with 2.5 mL of a 60 mg/mL solution of chondroitin in saline (first group) or 2.5 mL of a 60 mg/mL solution of chondroitin sulphate in saline (second group). The treatment was performed by slowly dripping the solution into the wound twice a day and dabbing with a gauze dressing, which was then used to cover the wound so that the active ingredient remained in situ for longer. The study continued for 6 weeks, after which the animals were euthanized. A biopsy of about 4 mm was taken after 4 weeks, while the entire areas of the 12 dorsal wounds were removed from the euthanized animals for histological tests. The following evaluations were performed on the treated animals:
a) an evaluation after 4 and 6 weeks by 4 dermatologists who independently assessed the quality of the wound (colour, texture, edges, distortion) and the appearance of the surrounding tissue on a 5-point scale;
b) a pathological evaluation on a scale of 1 to 3 conducted by two veterinary surgeons on the tissue removed after the animals were euthanized, to evaluate the presence of abnormal histopathological situations (quantity of granulation tissue and inflammatory response, with a score from 3 for optimum healing to 1 for ongoing inflammatory symptoms and abundant granulation tissue);
c) a histological analysis of the 4-week biopsies and the tissue removed after the animals were euthanized, conducted by two histologists operating independently, who evaluated the organisation of the collagen on a 3-point scale. An organisation of the collagen fibres similar to the normal model, but smaller than normal dermis (the best healing), scored 3 points, an intermediate arrangement of the fibre weave scored 2 points, and several fibres arranged in parallel bundles or on a plane scored 1 point.

[1] = test system: Enterococcus faecalis strain ATCC 19433; experiment: Inhibition of bacterial growth on plate, E. faecalis; assay type: cell-based
Procedure: The antibacterial activity of chondroitin (C) and chondroitin sulphate (CS) on the growth of Escherichia coli ATCC 25922 and Enterococcus faecalis ATCC 19433 on a solid medium in vitro was examined. The concentrations explored ranged from 40 μg/mL to 40 mg/mL of C or CS as final concentrations in the medium. Brain-heart infusion (Oxoid) was used as culture medium for E. coli ATCC 25922, and M17 (Oxoid) for E. faecalis ATCC 19433; both media were adjusted to the same pH and the same osmolarity before being solidified by adding agar and cooled. 100 μL of a bacterial suspension containing 10^2, 10^3 or 10^4 bacteria/mL was plated as inoculum. […] The number of colonies was then counted on control plates in the absence of the substances under study and on plates at the various concentrations of C and CS. The data from the experiments for the two micro-organisms, conducted in triplicate for each of the conditions, are shown in tables 7 and 8.

[2] = 40 μg/mL, 10 bacteria inoculated
[3] = 40 μg/mL, 100 bacteria inoculated
[4] = 40 μg/mL, 1000 bacteria inoculated
[5] = 400 μg/mL, 10 bacteria inoculated
[6] = 400 μg/mL, 100 bacteria inoculated
[7] = 400 μg/mL, 1000 bacteria inoculated
[8] = 4 mg/mL, 10 bacteria inoculated
[9] = 4 mg/mL, 100 bacteria inoculated
[10] = 4 mg/mL, 1000 bacteria inoculated
[11] = 40 mg/mL (maximum concentration)
[12] = 40 mg/mL, 10 bacteria inoculated
[13] = 40 mg/mL, 100 bacteria inoculated
[14] = 40 mg/mL, 1000 bacteria inoculated

Substance | a) Evaluation of wound quality after 4 weeks (mini-pig dorsal wounds; 30 mg/mL) | b) Evaluation of wound quality after 6 weeks (mini-pig dorsal wounds; 30 mg/mL) | d) Histological evaluation of biopsies after 4 weeks (mini-pig dorsal wounds; 30 mg/mL) | e) Histological evaluation of biopsies after 6 weeks (mini-pig dorsal wounds; 30 mg/mL) | c) Histopathological evaluation after 6 weeks (mini-pig dorsal wounds; 30 mg/mL) | a) Evaluation of wound quality after 4 weeks (mini-pig dorsal wounds; 60 mg/mL) | b) Evaluation of wound quality after 6 weeks (mini-pig dorsal wounds; 60 mg/mL) | d) Histological evaluation of biopsies after 4 weeks (mini-pig dorsal wounds; 60 mg/mL) | e) Histological evaluation of biopsies after 6 weeks (mini-pig dorsal wounds; 60 mg/mL) | c) Histopathological evaluation after 6 weeks (mini-pig dorsal wounds; 60 mg/mL) | CFU after 36 h [1, 2] [CFU] | CFU after 36 h [1, 3] [CFU] | CFU after 36 h [1, 4] [CFU] | Inhibition factor ([1]; 400 μg/mL) | Qualitative valuation of inhibition ([1]; 400 μg/mL) | CFU after 36 h [1, 5] [CFU] | CFU after 36 h [1, 6] [CFU] | CFU after 36 h [1, 7] [CFU] | Inhibition factor ([1]; 4 mg/mL) | Qualitative valuation of inhibition ([1]; 4 mg/mL) | further results
chondroitin | 3.8 ± 0.4 | 4.5 ± 0.3 | 2.3 ± 0.2 | 2.7 ± 0.1 | 2.3 ± 0.1 | 4.1 ± 0.3 | 4.9 ± 0.1 | 2.7 ± 0.1 | 3.0 ± 0.2 | 3.0 ± 0.2 | 8 ± 2 | 82 ± 5 | 870 ± 70 | 2 | significant | 5 ± 1 | 55 ± 6 | 480 ± 30 | 6.1 | significant | Inhibition factor ([1]; 40 μg/mL): 1.2; Qualitative valuation of inhibition ([1]; 40 μg/mL): mild; CFU after 36 h [1, 8]: 0 CFU; CFU after 36 h [1, 9]: 18 ± 4 CFU; CFU after 36 h [1, 10]: 150 ± 4 CFU; Qualitative valuation of inhibition ([1]; 40 mg/mL): high; Inhibition factor [1, 11]: 50; CFU after 36 h [1, 12]: 0 CFU; CFU after 36 h [1, 13]: 0 CFU; CFU after 36 h [1, 14]: 20 ± 2 CFU
chondroitin sulphate [CS, reference compound] | 2.6 ± 0.2 | 3.4 ± 0.3 | 1.3 ± 0.1 | 1.7 ± 0.2 | 1.7 ± 0.2 | 2.9 ± 0.2 | 3.7 ± 0.3 | 1.3 ± 0.1 | 1.7 ± 0.1 | 2.3 ± 0.2 | 8 ± 2 | 90 ± 7 | 960 ± 70 | 1.3 | mild | 7 ± 1 | 80 ± 5 | 780 ± 70 | 2 | significant | CFU after 36 h [1, 8]: 5 ± 1 CFU; CFU after 36 h [1, 9]: 48 ± 4 CFU; CFU after 36 h [1, 10]: 520 ± 30 CFU; Qualitative valuation of inhibition ([1]; 40 mg/mL): high; Inhibition factor [1, 11]: 7.4; CFU after 36 h [1, 12]: 0 CFU; CFU after 36 h [1, 13]: 15 ± 2 CFU; CFU after 36 h [1, 14]: 120 ± 10 CFU

From US10206944B2, “Chondroitin for use in medicine” (ALTERGON S.A., priority 2012, dated 2019)
